These results are taken from PMC4188605, “Biochemical and Pharmacological Characterization of the Human Lymphocyte Antigen B-Associated Transcript 5 (BAT5/ABHD16A)” (PLoS ONE, 2014).

Several values for one entry are separate records, joined by “and”; a condition that tells them apart may be missing. Equal values may be shown once. Read-outs that look alike come from different tables or passages of the source.

Series [1] addresses T1, hMAGL (Homo sapiens, UniProt Q99685).
T1 construct: expressed in transfected cells; host or cells: HEK
T1 sequence (Q99685 1-303): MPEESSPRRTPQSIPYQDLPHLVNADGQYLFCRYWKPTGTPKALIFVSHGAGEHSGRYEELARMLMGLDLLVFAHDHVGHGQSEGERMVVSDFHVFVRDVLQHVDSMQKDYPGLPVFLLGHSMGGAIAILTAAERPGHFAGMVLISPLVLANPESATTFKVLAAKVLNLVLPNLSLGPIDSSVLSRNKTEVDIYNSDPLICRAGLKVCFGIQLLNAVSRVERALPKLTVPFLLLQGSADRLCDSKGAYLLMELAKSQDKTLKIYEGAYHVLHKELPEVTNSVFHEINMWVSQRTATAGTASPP
The note with it: 15d-PGJ2-G as substrate for hMAGL; cited from earlier work.

Series [2] has as its target T2, hBAT5 (Homo sapiens, UniProt O95870).
T2 sequence (O95870 1-558): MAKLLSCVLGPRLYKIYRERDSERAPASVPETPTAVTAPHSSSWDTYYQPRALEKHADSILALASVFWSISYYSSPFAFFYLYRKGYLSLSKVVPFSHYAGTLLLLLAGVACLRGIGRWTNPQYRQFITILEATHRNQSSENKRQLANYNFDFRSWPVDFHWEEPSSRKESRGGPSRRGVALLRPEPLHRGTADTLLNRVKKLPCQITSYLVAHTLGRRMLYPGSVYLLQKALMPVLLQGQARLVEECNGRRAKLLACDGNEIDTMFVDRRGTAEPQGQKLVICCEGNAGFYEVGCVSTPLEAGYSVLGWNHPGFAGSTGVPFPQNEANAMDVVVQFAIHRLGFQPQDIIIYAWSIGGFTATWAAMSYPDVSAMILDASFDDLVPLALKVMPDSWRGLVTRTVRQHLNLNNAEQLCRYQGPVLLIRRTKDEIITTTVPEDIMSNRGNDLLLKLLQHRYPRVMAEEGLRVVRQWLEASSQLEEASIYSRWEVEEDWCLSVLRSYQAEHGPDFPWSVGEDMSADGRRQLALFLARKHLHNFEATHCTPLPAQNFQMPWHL
Nature of the series: hBAT5 substrate hydrolysis and Michaelis-Menten kinetics (glycerol assay, hBAT5-HEK293 lysates). The following applies: with 0.5% BSA.

Series [3] deals with T3, hABHD6 (Homo sapiens, UniProt Q9BV23).
T3 construct: expressed in transfected cells; host or cells: HEK293
T3 sequence (Q9BV23 1-337): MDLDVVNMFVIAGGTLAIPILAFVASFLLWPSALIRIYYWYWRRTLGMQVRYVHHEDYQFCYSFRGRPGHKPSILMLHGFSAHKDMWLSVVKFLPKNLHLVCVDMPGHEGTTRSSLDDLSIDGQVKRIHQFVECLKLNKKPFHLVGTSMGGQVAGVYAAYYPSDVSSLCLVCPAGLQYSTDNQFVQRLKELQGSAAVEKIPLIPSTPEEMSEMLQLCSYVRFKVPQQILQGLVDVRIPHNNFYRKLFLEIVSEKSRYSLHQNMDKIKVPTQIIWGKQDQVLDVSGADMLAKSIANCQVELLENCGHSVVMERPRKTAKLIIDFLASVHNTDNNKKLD
Nature of the series: Hydrolase activity assay, hABHD6-HEK lysates. The following applies: IC50, hABHD6-HEK lysates. It is filed as biochemical.

Series [4] has as its target T1, hMAGL. The series is described as follows: Hydrolase activity assay, hMAGL-HEK lysates. It is filed as biochemical.
The target in series [5] is T4, hABHD12 (Homo sapiens, UniProt Q8N2K0).
T4 construct: expressed in transfected cells; host or cells: HEK293
T4 sequence (Q8N2K0 1-398): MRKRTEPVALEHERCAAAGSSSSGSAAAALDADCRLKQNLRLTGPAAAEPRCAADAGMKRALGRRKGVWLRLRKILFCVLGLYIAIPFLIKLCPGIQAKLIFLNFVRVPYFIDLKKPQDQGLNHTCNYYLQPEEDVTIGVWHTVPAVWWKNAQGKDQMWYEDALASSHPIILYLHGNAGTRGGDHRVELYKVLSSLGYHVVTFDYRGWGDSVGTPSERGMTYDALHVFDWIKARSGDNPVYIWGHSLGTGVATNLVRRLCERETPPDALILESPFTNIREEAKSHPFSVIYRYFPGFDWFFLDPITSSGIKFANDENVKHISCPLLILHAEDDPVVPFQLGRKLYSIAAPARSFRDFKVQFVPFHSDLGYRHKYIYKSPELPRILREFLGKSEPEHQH
The series is described as follows: Hydrolase activity assay, hABHD12-HEK lysates. It is filed as biochemical.

In series [6] the target is T5, hFAAH (Homo sapiens, UniProt O00519).
T5 construct: expressed in transfected cells; host or cells: COS-7
T5 sequence (O00519 1-579): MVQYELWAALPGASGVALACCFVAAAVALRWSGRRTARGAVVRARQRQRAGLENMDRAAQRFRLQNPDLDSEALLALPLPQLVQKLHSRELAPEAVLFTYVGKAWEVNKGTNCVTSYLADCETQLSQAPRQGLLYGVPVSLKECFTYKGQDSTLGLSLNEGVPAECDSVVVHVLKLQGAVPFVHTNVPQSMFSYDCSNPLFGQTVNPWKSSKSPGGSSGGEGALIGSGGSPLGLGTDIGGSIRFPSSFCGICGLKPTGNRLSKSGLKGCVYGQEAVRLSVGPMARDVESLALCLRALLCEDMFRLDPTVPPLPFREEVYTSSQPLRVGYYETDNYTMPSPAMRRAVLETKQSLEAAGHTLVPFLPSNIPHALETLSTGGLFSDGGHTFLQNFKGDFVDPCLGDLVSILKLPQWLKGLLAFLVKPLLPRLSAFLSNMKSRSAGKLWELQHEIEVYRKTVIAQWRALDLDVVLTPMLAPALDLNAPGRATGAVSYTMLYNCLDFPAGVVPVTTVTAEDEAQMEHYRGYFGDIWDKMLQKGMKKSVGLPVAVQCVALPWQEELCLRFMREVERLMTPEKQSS
Nature of the series: FAAH activity assay, hFAAH-COS7 membranes (3H-anandamide). It is filed as biochemical.

For series [7], the target named is T4, hABHD12. Also on record: method as in PMID 22969151. The following applies: hABHD12-HEK lysates; cited from earlier work.
The target of series [8] is T2, hBAT5. The series is described as follows: Inhibition of 1-LG hydrolysis in hBAT5-HEK293 lysates (fluorescent glycerol assay). The series is classed as biochemical. Further details: host or cells: HEK293. The following applies: 1-LG 25 µM; 30 min inhibitor pretreatment; monitored 90 min; mean, n=3; read-out: IC50.
For series [9], the target named is T6, BAT5 (Mus musculus, UniProt Q9Z1Q2).
T6 sequence (Q9Z1Q2 1-558): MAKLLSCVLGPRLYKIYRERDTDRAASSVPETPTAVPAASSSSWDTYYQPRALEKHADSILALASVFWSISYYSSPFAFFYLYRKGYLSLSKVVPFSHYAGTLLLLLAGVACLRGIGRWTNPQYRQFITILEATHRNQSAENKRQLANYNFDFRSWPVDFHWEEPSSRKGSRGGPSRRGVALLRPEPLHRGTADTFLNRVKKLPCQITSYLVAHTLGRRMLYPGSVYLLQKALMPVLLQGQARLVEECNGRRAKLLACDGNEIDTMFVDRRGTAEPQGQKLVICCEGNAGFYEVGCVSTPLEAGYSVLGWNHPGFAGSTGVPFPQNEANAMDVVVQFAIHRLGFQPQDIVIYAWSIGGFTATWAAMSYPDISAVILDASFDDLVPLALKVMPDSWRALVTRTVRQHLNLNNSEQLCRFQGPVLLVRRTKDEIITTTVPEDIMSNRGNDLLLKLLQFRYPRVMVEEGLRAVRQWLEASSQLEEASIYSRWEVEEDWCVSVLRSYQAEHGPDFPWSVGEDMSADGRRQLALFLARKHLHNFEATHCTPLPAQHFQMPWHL
The series is described as follows: Competitive ABPP, mouse brain membrane proteome: BAT5 band. The note with it: reference inhibitor at the indicated concentration, used to identify the band (refs 4, 18).

The target in series [10] is T7, ABHD6 (Mus musculus, UniProt Q8R2Y0).
T7 sequence (Q8R2Y0 1-336): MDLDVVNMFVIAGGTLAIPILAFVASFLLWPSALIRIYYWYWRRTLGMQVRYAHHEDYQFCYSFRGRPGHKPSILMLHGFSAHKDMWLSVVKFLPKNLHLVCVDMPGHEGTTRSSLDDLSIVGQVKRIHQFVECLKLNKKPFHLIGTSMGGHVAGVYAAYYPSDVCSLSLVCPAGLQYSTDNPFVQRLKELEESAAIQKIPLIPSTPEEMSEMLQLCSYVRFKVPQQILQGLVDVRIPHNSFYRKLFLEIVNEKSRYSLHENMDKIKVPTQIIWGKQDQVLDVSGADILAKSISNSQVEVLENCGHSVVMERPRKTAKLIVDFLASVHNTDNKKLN
Nature of the series: Competitive ABPP, mouse brain membrane proteome: ABHD6 band.

Substrate in series [11]: CCCCC/C=C\C/C=C\CCCCCCCCOCC(O)CO
The series is described as follows: cells, lysate or membranes named. The following applies: other: substrate of hBAT5, time-point 90 min, n=3.

The Km is the concentration of substrate that gives half-maximal velocity. In general, Vmax refers to the top rate of the reaction or transport when substrate is in excess. With `CCCCC/C=C/C=C1/C(=O)C=CC1C/C=C\CCCC(=O)OC(CO)CO` (stereo not shown) [15d-PGJ2-G, 15-deoxy-Δ^12,14-prostaglandin J2-2-glycerol ester], the Km was approximately 15 µM in [1]; 20.9 µM and ~21 µM in [2] (substrate of hBAT5, time-point 90 min, n=3). In addition, the “hydrolysis by hBAT5 (substrate utilization, in words)” value in series [2] (25 µM substrate, 60 min) is reported as “readily hydrolyzed”. In addition, in series [2] (substrate of hBAT5, total lysate protein, n=3), the Vmax was found to be 3.0 ± 0.2 nmol/mg/min.
As usually defined, the IC50 is the concentration that gives 50% inhibition. For orientation: remaining activity means the activity still measured, relative to the control. For `CCC(C)C(O)C(C)C(=O)C(C)C=C(C)CC(C)C1OC(=O)C1C` (stereo not shown) [Ebelactone A, ebelactone A], the IC50 in series [3] is 870 nM. Also, in series [4], the remaining activity at 10 µM amounted to 90.8% and the “sensitivity of hMAGL (in words)” value was “resistant”. Besides, in series [5], the remaining activity at 10 µM was 100% and the “sensitivity of hABHD12 (in words)” value is on record as “resistant”. Besides, in [6], the remaining activity at 10 µM was found to be 87.3% and the “sensitivity of hFAAH (in words)” value is listed as “resistant”.
As to `CCCCCCCCCCC[C@@H](C[C@@H]1OC(=O)[C@H]1CCCCCC)OC(=O)[C@H](CC(C)C)NC=O` [THL, tetrahydrolipstatin], the remaining activity at 10 µM in series [4] (at 10^−5 M, read-out: Remaining activity) was 88.1%; in series [6] it was 100%. In addition, the IC50 in series [7] was 193 nM; in series [8], 170 nM. The “inhibition of probe labeling of BAT5 by reference inhibitor” value in series [9] is listed as “inhibited”. The “inhibition of probe labeling of ABHD6 by reference inhibitor” value in series [10] is on record as “inhibited”.

B1: hBAT5 (Homo sapiens) (protein)
chain: MAKLLSCVLGPRLYKIYRERDSERAPASVPETPTAVTAPHSSSWDTYYQPRALEKHADSILALASVFWSISYYSSPFAFFYLYRKGYLSLSKVVPFSHYAGTLLLLLAGVACLRGIGRWTNPQYRQFITILEATHRNQSSENKRQLANYNFDFRSWPVDFHWEEPSSRKESRGGPSRRGVALLRPEPLHRGTADTLLNRVKKLPCQITSYLVAHTLGRRMLYPGSVYLLQKALMPVLLQGQARLVEECNGRRAKLLACDGNEIDTMFVDRRGTAEPQGQKLVICCEGNAGFYEVGCVSTPLEAGYSVLGWNHPGFAGSTGVPFPQNEANAMDVVVQFAIHRLGFQPQDIIIYAWSIGGFTATWAAMSYPDVSAMILDASFDDLVPLALKVMPDSWRGLVTRTVRQHLNLNNAEQLCRYQGPVLLIRRTKDEIITTTVPEDIMSNRGNDLLLKLLQHRYPRVMAEEGLRVVRQWLEASSQLEEASIYSRWEVEEDWCLSVLRSYQAEHGPDFPWSVGEDMSADGRRQLALFLARKHLHNFEATHCTPLPAQNFQMPWHL
As to B1, the Km was 137.8 ± 30.6 µM and 140 µM in series [11] (with 0.5% BSA); 6.9 ± 1.7 µM in series [11] (without BSA).
